Reference: patent publication US20180015070A1, “METHODS AND COMPOSITIONS FOR UPREGULATING ENDOGENOUS ANTIOXIDANT SYSTEMS” (USANA Health Sciences, Inc., priority 2016, published 2018)
Like-named read-outs stand apart in the source and are kept apart here. Marks after values point to notes of the source that are not given here.

Experiments:
[1] = tested on: NF-κB reporter cells (HEK293); settings: human, 24 h
human Nrf2 = assay: Nrf2 reporter assay, agonist mode (native receptor, ARE-luciferase, CV1); assay type: cell-based; settings: for agonist activity against human Nrf2: at the concentrations tested
Nrf2 = Nrf2 signaling fluorescent reporter assay in human retinal epithelial cell line; assay type: cell-based; settings: for minimum inducing concentration (Nrf2): human retinal epithelial cell line
Description: The assays were carried out with a fluorescent reporter assay that utilized a human retinal epithelial cell line. The assays also included validation by RT-PCR (reverse transcription polymerase chain reaction) of Nrf2 target genes. The human retinal epithelial cell line was purchased from ATCC (American Type Cell Culture, Manassas, Va.) and was configured to function as a fluorescent reporter assay. Test solutions of each of the alpha lipoic acid, resveratrol, curcumin, EGCG, Olivol®, rutin, quercetin, and hesperetin were prepared by serial dilution. Control solutions were also prepared. Positive control solutions of a known Nrf2 agonist, L-sulphoraphane was also prepared. Each test solution was then assayed for Nrf2 signaling activity using the fluorescent reporter assay and compared to control assays. The positive control solutions were also tested.

[2] = tested on: C. elegans strain CB5586 worms; assay: phenotypic lifespan screening with C. elegans; assay type: in vivo; settings: for anti-ageing activity / effect on chronological lifespan: over the concentrations tested; for population age in days at 25% mortality: DMSO control 11; for population age in days at 50% mortality: DMSO control 14; for population age in days at 75% mortality: DMSO control 16
Description: Dilutions of the test formulations were applied to individual populations of C. elegans and the lifespan of each population was monitored. Any changes in the lifespan of an individual population compared to a control population were recorded and correlated to the respective test formulation (N356 or N357) and the respective dilution (0.1 mg/ml, 1 mg/ml, and 10 mg/ml).
The N356 and N357 formulations were each prepared as individual 100 mg/ml stock solutions in dimethyl sulfoxide (DMSO). Serial dilutions of each stock solution were then prepared at 0.1 mg/ml, 1 mg/ml, and 10 mg/ml in DMSO. Control solutions of DMSO only were also prepared. Synchronous aged adult populations of C. elegans strain CB5586 worms were prepared. The CB5586 strain comprises a pharyngeal GFP (green fluorescent protein) tag and a mutation in the bus-5 gene. The pharyngeal GFP tag allows for fluorescent images of the worm populations to be taken. The mutation in the bus-5 gene causes the loss of normal cuticle antigens that permits the cuticle of the worms to become permeable to the test formulations and allow direct uptake of the test formulations to avoid interaction of the test formulations with protective mechanisms of the gut channel. Each serial dilution of each test formulation was added to a separate population of the prepared worms. The control solutions were also added to separate populations of the prepared worms. The populations of the prepared worms were then maintained on standard nematode growth media (NGM) agar plates at 20° C. with sufficient food (Escherichia coli strain OP-50).
Each worm population was then monitored by fluorescent imaging to determine the number of living and dead worms as a function of time. The fluorescent imaging was analyzed by software that recognized and counted worms based on their fluorescent intensity compared to background fluorescence. […] The ability to distinguish between living and dead worms allowed the number of living worms and cumulative number of dead worms to be monitored against time. Worm populations from a selection of fluorescent images were manually checked to verify that the software had accurately counted the number of living and dead worms.
The counts of the living and dead worms as a function of time were then analyzed for each of the worm populations and used to prepare Kaplan-Meier survival curves and associated statistics for each of the worm populations. […] The median lifespan is shown as the length of time after the last mitotic division that 50% of the test population remains viable when compared to the control population. The maximum lifespan extension is shown as the length of time after the last mitotic division that 5% of the test population remains viable when compared to the control population.
The counts of the living and dead worms as a function of time and the Kaplan-Meier survival curves and the associated statistics were then analyzed for each of the worm populations. The analysis included determining mean and median lifespan. The analysis included a non-parametric test, the Log-Rank test, which compares two survival functions for the overall lifespan assay and provides a reliable p-value summarizing the whole experiment. The analysis also included Fisher's Exact Test that calculated the significance of survival function comparisons at multiple specific time points throughout the experiment, rather than for the overall lifespan. The results of the analysis are shown below in Tables 10-17. […]

[3] = 0.1 mg/ml, compared to DMSO control
[4] = 10 mg/ml, compared to DMSO control
[5] = at 10 μM and 1 (unit not given)

O=C(O)CCCCC1CCSS1 (racemic) [Alpha lipoic acid, alpha lipoic acid]
NF-κB % Live Cell ([1]; 1.42 μg/ml): 100% | Nrf2 Fold-Activation (human Nrf2; 1.42 μg/ml active ingredient): 1.4 fold | Nrf2 Fold-Activation (human Nrf2; 4.25 μg/ml active ingredient): 1.4 fold | Nrf2 Fold-Activation (human Nrf2; 12.7 μg/ml active ingredient): 1.5 fold | Nrf2 Fold-Activation (human Nrf2; 38.23 μg/ml active ingredient): 1.5 fold | Nrf2 Fold-Activation (human Nrf2; 114.70 μg/ml active ingredient): 2.4 fold | agonist activity against human Nrf2 (human Nrf2): very low-level agonist activity | activation of Nrf2 against a control (Nrf2; at 100 μM and 30 (unit not given)): demonstrated activation of Nrf2 | minimum inducing concentration (Nrf2) (Nrf2): 1.75 µM | anti-ageing activity / effect on chronological lifespan [2]: significant positive and dose dependent increase of chronological lifespan

COc1cc(/C=C/C(=O)CC(=O)/C=C/c2ccc(O)c(OC)c2)ccc1O [Curcumin, curcumin]
NF-κB % Live Cell ([1]; 0.6 μg/ml): 99% | NF-κB % Live Cell ([1]; 1.81 μg/ml): 97% | Nrf2 Fold-Activation (human Nrf2; 0.007 μg/ml active ingredient): 1.6 fold | Nrf2 Fold-Activation (human Nrf2; 0.022 μg/ml active ingredient): 1.7 fold | Nrf2 Fold-Activation (human Nrf2; 0.067 μg/ml active ingredient): 1.4 fold | Nrf2 Fold-Activation (human Nrf2; 0.20 μg/ml active ingredient): 0.96 fold | Nrf2 Fold-Activation (human Nrf2; 0.60 μg/ml active ingredient): 1.0 fold | Nrf2 Fold-Activation (human Nrf2; 1.81 μg/ml active ingredient): 1.6 fold

COc1ccc([C@@H]2CC(=O)c3c(O)cc(O)cc3O2)cc1O [Hesperetin, (S)-2,3-Dihydro-5,7-dihydroxy-2-(3-hydroxy-4-methoxyphenyl)-4H-1-benzopyran-4-one]
NF-κB % Live Cell ([1]; 0.043 μg/ml): 98% | NF-κB % Live Cell ([1]; 0.389 μg/ml): 99% | NF-κB % Live Cell ([1]; 1.167 μg/ml): 98% | NF-κB % Live Cell ([1]; 3.5 μg/ml): 96% | Nrf2 Fold-Activation (human Nrf2; 0.043 μg/ml active ingredient): 1.4 fold | Nrf2 Fold-Activation (human Nrf2; 0.389 μg/ml active ingredient): 1.3 fold | Nrf2 Fold-Activation (human Nrf2; 1.167 μg/ml active ingredient): 1.5 fold | Nrf2 Fold-Activation (human Nrf2; 3.5 μg/ml active ingredient): 0.94 fold

COc1ccc([C@@H]2CC(=O)c3c(O)cc(O[C@@H]4O[C@H](CO[C@@H]5O[C@@H](C)[C@H](O)[C@@H](O)[C@H]5O)[C@@H](O)[C@H](O)[C@H]4O)cc3O2)cc1O [N347, Hesperidin]
% Change in Mean Lifespan [2, 3]: +10% | extension of lifespan ([2]; 0.1 mg/ml, vs DMSO control): about 10% | population age in days at 25% mortality ([2]; 0.1 mg/ml): 11 days | population age in days at 50% mortality ([2]; 0.1 mg/ml): 16 days | population age in days at 75% mortality ([2]; 0.1 mg/ml): 18 days | Statistically Significant Result [2, 4]: No statistical difference | population age in days at 25% mortality ([2]; 10 mg/ml): 11 days | population age in days at 50% mortality ([2]; 10 mg/ml): 14 days | population age in days at 75% mortality ([2]; 10 mg/ml): 18 days | anti-ageing activity / effect on chronological lifespan [2]: significant positive and dose dependent increase of chronological lifespan

O=c1c(O)c(-c2ccc(O)c(O)c2)oc2cc(O)cc(O)c12 [Quercetin, 2-(3,4-dihydroxyphenyl)-3,5,7-trihydroxy-4H-chromen-4-one]
NF-κB % Live Cell ([1]; 23 μg/ml): 97% | NF-κB % Live Cell ([1]; 68 μg/ml): 77*** % | agonist activity against human Nrf2 (human Nrf2): low-level agonist activity | concentration giving more Nrf2 activation (Nrf2; 10 μM compared with 1 μM): more activation at the 1 μM concentration | activation of Nrf2 against a control (Nrf2; [5]): demonstrated activation of Nrf2 | minimum inducing concentration (Nrf2) (Nrf2): 0.55 µM | Statistically Significant Result [2, 4]: No statistical difference | anti-ageing activity / effect on chronological lifespan [2]: significant negative effect on chronological lifespan

Oc1ccc(/C=C/c2cc(O)cc(O)c2)cc1 [Resveratrol, 3,5,4′-trihydroxy-trans-stilbene]
NF-κB % Live Cell ([1]; 0.28 μg/ml): 100% | NF-κB % Live Cell ([1]; 0.85 μg/ml): 100% | NF-κB % Live Cell ([1]; 1.81 μg/ml): 99% | activation of Nrf2 against a control (Nrf2; [5]): demonstrated activation of Nrf2 | Statistically Significant Result [2, 3]: No statistical difference | anti-ageing activity / effect on chronological lifespan [2]: significant positive and dose dependent increase of chronological lifespan

C[C@@H]1O[C@@H](OC[C@H]2O[C@@H](Oc3c(-c4ccc(O)c(O)c4)oc4cc(O)cc(O)c4c3=O)[C@H](O)[C@@H](O)[C@@H]2O)[C@H](O)[C@H](O)[C@H]1O [Rutin, quercetin-3-O-rutinoside]
NF-κB % Live Cell ([1]; 1.11 μg/ml): 99% | NF-κB % Live Cell ([1]; 3.3 μg/ml): 98% | NF-κB % Live Cell ([1]; 30 μg/ml): 97%
